Laboratory results: ChEMBL document CHEMBL2311389, “Pyrazole-based arylalkyne cathepsin S inhibitors. Part III: modification of P4 region” (Bioorg Med Chem Lett, 2013)
In brackets after ≈: the same amount, converted by molar mass.

Assays:
[1] = Equilibrium solubility in pH 7.0 phosphate buffer by LC/MS method; format: physicochemical
Cathepsin S [2] = target: T1, Cathepsin S (Homo sapiens, UniProt P25774); assay: Inhibition of cathepsin S in human JY cells assessed as invariant chain-li degradation; format: cell-based
Cathepsin S [3] = target: T1, Cathepsin S; assay: Inhibition of human cathepsin S
[4] = target: Voltage-gated inwardly rectifying potassium channel KCNH2 (Homo sapiens, UniProt Q12809); assay: Inhibition of human ERG by patch clamp assay
Sequence of Voltage-gated inwardly rectifying potassium channel KCNH2 (Q12809 whole entry): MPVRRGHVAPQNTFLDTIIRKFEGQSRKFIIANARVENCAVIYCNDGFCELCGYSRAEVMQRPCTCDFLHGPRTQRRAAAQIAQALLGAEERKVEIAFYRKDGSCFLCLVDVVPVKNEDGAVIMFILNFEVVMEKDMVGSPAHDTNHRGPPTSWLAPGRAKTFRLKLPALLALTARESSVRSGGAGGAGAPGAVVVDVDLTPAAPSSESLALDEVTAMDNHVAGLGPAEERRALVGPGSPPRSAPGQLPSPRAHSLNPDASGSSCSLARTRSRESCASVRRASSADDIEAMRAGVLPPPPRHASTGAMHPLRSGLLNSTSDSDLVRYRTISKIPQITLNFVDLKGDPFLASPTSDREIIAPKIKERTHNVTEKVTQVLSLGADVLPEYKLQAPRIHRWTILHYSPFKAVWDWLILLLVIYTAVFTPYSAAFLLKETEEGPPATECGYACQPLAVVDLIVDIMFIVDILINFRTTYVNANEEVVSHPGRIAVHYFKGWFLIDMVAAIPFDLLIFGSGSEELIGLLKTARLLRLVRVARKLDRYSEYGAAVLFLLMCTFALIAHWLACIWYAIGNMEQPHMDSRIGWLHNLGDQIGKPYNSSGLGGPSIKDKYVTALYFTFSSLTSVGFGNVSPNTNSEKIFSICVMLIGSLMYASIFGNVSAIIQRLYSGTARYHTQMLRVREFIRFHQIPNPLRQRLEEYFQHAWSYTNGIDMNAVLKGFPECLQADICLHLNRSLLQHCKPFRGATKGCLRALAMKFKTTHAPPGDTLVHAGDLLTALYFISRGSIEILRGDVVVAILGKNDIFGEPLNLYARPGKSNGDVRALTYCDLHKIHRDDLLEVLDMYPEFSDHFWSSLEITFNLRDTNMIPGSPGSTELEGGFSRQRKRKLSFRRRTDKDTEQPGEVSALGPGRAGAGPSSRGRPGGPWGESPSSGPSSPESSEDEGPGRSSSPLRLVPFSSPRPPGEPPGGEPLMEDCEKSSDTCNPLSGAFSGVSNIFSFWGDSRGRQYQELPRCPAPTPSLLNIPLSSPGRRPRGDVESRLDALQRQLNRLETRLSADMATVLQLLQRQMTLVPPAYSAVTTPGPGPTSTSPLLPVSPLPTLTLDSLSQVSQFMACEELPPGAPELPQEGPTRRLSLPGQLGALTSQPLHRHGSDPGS

T1 sequence (P25774 whole entry): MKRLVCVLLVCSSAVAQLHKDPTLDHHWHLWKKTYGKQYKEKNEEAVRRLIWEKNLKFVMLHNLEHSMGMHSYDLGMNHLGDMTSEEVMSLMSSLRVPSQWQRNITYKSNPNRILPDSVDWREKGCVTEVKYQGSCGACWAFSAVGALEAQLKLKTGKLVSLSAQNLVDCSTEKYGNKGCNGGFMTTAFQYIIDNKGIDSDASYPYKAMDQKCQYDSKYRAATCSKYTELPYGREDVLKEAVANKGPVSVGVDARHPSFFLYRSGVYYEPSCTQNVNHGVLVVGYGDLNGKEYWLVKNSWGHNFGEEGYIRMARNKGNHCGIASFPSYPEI

SMILES: NC(=O)C(=O)N1CCc2c(c(-c3ccc(C(F)(F)F)c(SCCN4CCC(F)CC4)c3)nn2C[C@@H](O)CN2CCCCC2)C1
- solubility thermodynamic [1]: < 1 µM

SMILES: NC(=O)N1CCc2c(c(-c3ccc(Cl)c(C#Cc4ccc(Cl)c(C(=O)N5CCNCC5)c4)c3)nn2CCCN2CCSCC2)C1
- IC50 (Cathepsin S [2]): 630 nM
- solubility thermodynamic [1]: 66 µM (≈ 44 µg/mL)

SMILES: NC(=O)C(=O)N1CCc2c(c(-c3ccc(Cl)c(C#Cc4ccc(CNCc5ccc(Cl)cc5)cc4)c3)nn2CCCN2CCN(c3ccccc3)CC2)C1
- IC50 (Cathepsin S [3]): 10 nM
- IC50 (Cathepsin S [2]): 560 nM
- solubility thermodynamic [1]: < 1 µM

SMILES: NC(=O)N1CCc2c(c(-c3ccc(Cl)c(C#Cc4ccc(CNCc5ccc(Cl)cc5)cc4)c3)nn2CCCN2CCSCC2)C1
- IC50 (Cathepsin S [3]): 70 nM
- IC50 (Cathepsin S [2]): 870 nM
- inhibition (INH) [4]: Not Active
- solubility thermodynamic [1]: < 1 µM

SMILES: NC(=O)C(=O)N1CCc2c(c(-c3ccc(Cl)c(C#Cc4ccc(CNCc5ccc(Cl)cc5)cc4)c3)nn2CCCN2CCSCC2)C1
- IC50 (Cathepsin S [2]): 270 nM
- solubility thermodynamic [1]: < 1 µM

SMILES: C[C@@H]1COCCN1CCCn1nc(-c2ccc(Cl)c(C#Cc3ccc(CNCc4ccc(Cl)cc4)cc3)c2)c2c1CCN(C(N)=O)C2
- IC50 (Cathepsin S [3]): 110 nM
- IC50 (Cathepsin S [2]): 1540 nM
- solubility thermodynamic [1]: 3 µM (≈ 2.02 µg/mL)

SMILES: C[C@@H]1COCCN1CCCn1nc(-c2ccc(Cl)c(C#Cc3ccc(CNCc4ccc(Cl)cc4)cc3)c2)c2c1CCN(C(=O)C(N)=O)C2
- IC50 (Cathepsin S [3]): 50 nM
- IC50 (Cathepsin S [2]): 960 nM
- inhibition (INH) [4]: Not Active
- solubility thermodynamic [1]: < 1 µM

SMILES: NC(=O)N1CCc2c(c(-c3ccc(Cl)c(C#Cc4ccc(C(=O)NCc5ccc(Cl)cc5)cc4)c3)nn2CCCN2CCSCC2)C1
- IC50 (Cathepsin S [2]): > 10000 nM

SMILES: NC(=O)N1CCc2c(c(-c3ccc(Cl)c(C#Cc4ccc(C(=O)NCc5cccnc5)cc4)c3)nn2CCCN2CCSCC2)C1
- IC50 (Cathepsin S [2]): > 10000 nM

SMILES: NC(=O)N1CCc2c(c(-c3ccc(Cl)c(C#Cc4ccc(C(=O)NC[C@@H]5CCCN5)cc4)c3)nn2CCCN2CCSCC2)C1
- IC50 (Cathepsin S [2]): > 10000 nM
- solubility thermodynamic [1]: 81 µM (≈ 52.3 µg/mL)

SMILES: NC(=O)N1CCc2c(c(-c3ccc(Cl)c(C#Cc4ccc(COCc5cccnc5)cc4)c3)nn2CCCN2CCSCC2)C1
- IC50 (Cathepsin S [2]): > 10000 nM

SMILES: NC(=O)N1CCc2c(c(-c3ccc(Cl)c(C#Cc4ccc(Cl)c(C(=O)NC[C@@H]5CCCN5)c4)c3)nn2CCCN2CCSCC2)C1
- IC50 (Cathepsin S [2]): 620 nM
- solubility thermodynamic [1]: 175 µM (≈ 119 µg/mL)

SMILES: NC(=O)N1CCc2c(c(-c3ccc(Cl)c(C#Cc4ccc(Cl)c(C(=O)NCCN5CCOCC5)c4)c3)nn2CCCN2CCSCC2)C1
- IC50 (Cathepsin S [2]): 610 nM
- solubility thermodynamic [1]: 9 µM (≈ 6.4 µg/mL)

SMILES: CN(C)S(=O)(=O)N1CCc2c(c(-c3ccc(Cl)c(C#Cc4ccc(CNCc5ccc(Cl)cc5)cc4)c3)nn2CCCN2CCOCC2)C1
- IC50 (Cathepsin S [2]): 5000 nM

SMILES: CC(=O)NCC(=O)N1CCc2c(c(-c3ccc(Cl)c(C#Cc4ccc(CNCc5ccc(Cl)cc5)cc4)c3)nn2CCCN2CCOCC2)C1
- IC50 (Cathepsin S [2]): 1100 nM

SMILES: NC(=O)C(=O)N1CCc2c(c(-c3ccc(Cl)c(C#Cc4ccc(CNCc5ccc(Cl)cc5)cc4)c3)nn2CCCN2CCOCC2)C1
- IC50 (Cathepsin S [3]): 60 nM
- IC50 (Cathepsin S [2]): 510 nM
- solubility thermodynamic [1]: < 1 µM

SMILES: CN(C)C(=O)C(=O)N1CCc2c(c(-c3ccc(Cl)c(C#Cc4ccc(CNCc5ccc(Cl)cc5)cc4)c3)nn2CCCN2CCOCC2)C1
- IC50 (Cathepsin S [2]): 1750 nM
- solubility thermodynamic [1]: < 1 µM

SMILES: NC(=O)N1CCc2c(c(-c3ccc(Cl)c(C#Cc4ccc(CNCc5ccc(Cl)cc5)cc4)c3)nn2CCCN2CCCCC2)C1
- IC50 (Cathepsin S [2]): 200 nM

SMILES: NC(=O)C(=O)N1CCc2c(c(-c3ccc(Cl)c(C#Cc4ccc(CNCc5ccc(Cl)cc5)cc4)c3)nn2CCCN2CCCCC2)C1
- IC50 (Cathepsin S [2]): 300 nM

SMILES: NC(=O)N1CCc2c(c(-c3ccc(Cl)c(C#Cc4ccc(CNCc5ccc(Cl)cc5)cc4)c3)nn2CCCN2CCC(C(F)(F)F)CC2)C1
- IC50 (Cathepsin S [3]): 60 nM
- IC50 (Cathepsin S [2]): 690 nM
- solubility thermodynamic [1]: < 1 µM

SMILES: NC(=O)C(=O)N1CCc2c(c(-c3ccc(Cl)c(C#Cc4ccc(CNCc5ccc(Cl)cc5)cc4)c3)nn2CCCN2CCC(C(F)(F)F)CC2)C1
- IC50 (Cathepsin S [2]): 1770 nM
- solubility thermodynamic [1]: < 1 µM

SMILES: NC(=O)N1CCc2c(c(-c3ccc(Cl)c(C#Cc4ccc(CNCc5ccc(Cl)cc5)cc4)c3)nn2CCCN2CCN(c3ccccc3)CC2)C1
- IC50 (Cathepsin S [2]): 710 nM

SMILES: NC(=O)N1CCc2c(c(-c3ccc(Cl)c(C#Cc4ccc(CNCc5ccc(Cl)cc5)cc4)c3)nn2CCCN2CCOCC2)C1
- IC50 (Cathepsin S [2]): 440 nM

SMILES: CS(=O)(=O)N1CCc2c(c(-c3ccc(Cl)c(C#Cc4ccc(CNCc5ccc(Cl)cc5)cc4)c3)nn2CCCN2CCOCC2)C1
- solubility thermodynamic [1]: < 1 µM

SMILES: NC(=O)N1CCc2c(c(-c3ccc(Cl)c(C#Cc4ccc(COCC5CNCCO5)cc4)c3)nn2CCCN2CCSCC2)C1 (racemic)
- IC50 (Cathepsin S [2]): > 10000 nM
- solubility thermodynamic [1]: 46 µM (≈ 29.9 µg/mL)

SMILES: NC(=O)N1CCc2c(c(-c3ccc(Cl)c(C#Cc4ccc(Cl)c(C(=O)NCC5CCCNC5)c4)c3)nn2CCCN2CCSCC2)C1 (racemic)
- IC50 (Cathepsin S [2]): 510 nM
